Consider 26 compounds from patent US5663180A, “Substituted cyclopentenes for the treatment of inflammation” (G.D. Searle & Co., priority 1994, dated 1997).

pIC50: −log10 of the molar value. Where two headings read alike, the source gives them in different places.

In one assay the test system is COX II enzyme. The following applies: literature report; cited from earlier work.
Assay [1] deals with hyperalgesic foot withdrawal (rat carrageenan). The assay can be described thus: Rat Carrageenan-induced Analgesia Test. The class given is in vivo, Male Sprague-Dawley rats.
The next assay has as its system RAT PAW EDEMA. Put plainly: Rat Carrageenan Foot Pad Edema Test. The conditions noted are these: po, 3 h, read-out: RAT PAW EDEMA % Inhibition.
The next assay concerns the target T1, HUMAN COX I (Homo sapiens, UniProt P23219).
T1 construct: A 2.0 kb fragment containing the coding region of either human or murine COX-I or human or murine COX-II; made in house; host or cells: SF9 insect cells (recombinant baculovirus, pVL1393); CHAPS-solubilized
Put plainly: COX I activity in vitro (PGE2 formed, ELISA, recombinant enzyme). It is filed as biochemical. The following applies: read-out: HUMAN COX I ID50.

A further assay has as its target T2, HUMAN COX II (Homo sapiens, UniProt P35354).
T2 construct: A 2.0 kb fragment containing the coding region of either human or murine COX-I or human or murine COX-II; made in house; host or cells: SF9 insect cells (recombinant baculovirus, pVL1393); CHAPS-solubilized
T2 sequence (P35354 18-604): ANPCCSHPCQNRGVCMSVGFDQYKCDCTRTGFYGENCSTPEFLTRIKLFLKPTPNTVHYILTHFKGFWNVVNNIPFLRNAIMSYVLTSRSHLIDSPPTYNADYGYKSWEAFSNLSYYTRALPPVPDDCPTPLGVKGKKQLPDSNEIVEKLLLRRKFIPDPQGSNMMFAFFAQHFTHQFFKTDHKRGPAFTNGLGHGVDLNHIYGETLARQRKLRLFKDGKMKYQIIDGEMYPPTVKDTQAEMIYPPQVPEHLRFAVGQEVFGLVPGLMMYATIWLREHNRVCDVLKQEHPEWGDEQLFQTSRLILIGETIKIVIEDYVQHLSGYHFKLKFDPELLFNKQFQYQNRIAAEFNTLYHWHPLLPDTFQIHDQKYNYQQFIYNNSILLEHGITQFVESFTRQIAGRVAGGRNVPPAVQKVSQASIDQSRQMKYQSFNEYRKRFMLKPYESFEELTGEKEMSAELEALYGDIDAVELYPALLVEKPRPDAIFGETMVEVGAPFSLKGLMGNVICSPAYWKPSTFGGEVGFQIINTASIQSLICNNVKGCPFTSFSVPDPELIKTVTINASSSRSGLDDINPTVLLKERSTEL
The assay can be described thus: COX II activity in vitro (PGE2 formed, ELISA, recombinant enzyme). The conditions noted are these: arachidonic acid 10 μM, 10-20 min pre-incubation, read-out: HUMAN COX II ID50. It is filed as biochemical.

Setting [2] is: po, 3 h, read-out: ANALGESIA % Inhibition.
[3] abbreviates: recombinant human COX I, arachidonic acid 10 μM, 10-20 min pre-incubation.

T1 sequence (P23219 24-599): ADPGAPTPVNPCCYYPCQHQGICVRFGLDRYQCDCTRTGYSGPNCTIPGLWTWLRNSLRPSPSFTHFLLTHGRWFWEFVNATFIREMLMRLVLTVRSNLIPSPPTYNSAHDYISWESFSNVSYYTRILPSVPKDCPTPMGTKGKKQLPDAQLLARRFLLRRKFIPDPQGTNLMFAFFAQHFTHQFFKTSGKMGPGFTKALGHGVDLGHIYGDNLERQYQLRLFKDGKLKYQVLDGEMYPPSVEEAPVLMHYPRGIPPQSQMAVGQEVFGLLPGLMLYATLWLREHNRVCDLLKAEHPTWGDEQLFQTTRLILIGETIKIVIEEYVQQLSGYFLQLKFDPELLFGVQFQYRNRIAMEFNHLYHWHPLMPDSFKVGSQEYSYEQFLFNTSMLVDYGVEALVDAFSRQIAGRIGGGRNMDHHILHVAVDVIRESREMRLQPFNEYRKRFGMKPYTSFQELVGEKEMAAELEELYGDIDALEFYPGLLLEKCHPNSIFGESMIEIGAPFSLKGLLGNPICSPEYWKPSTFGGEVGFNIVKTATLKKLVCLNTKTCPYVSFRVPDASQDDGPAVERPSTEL

`COc1ccc2cc(CC(=O)O)ccc2c1` [6-methoxy-2-napthylacetic acid]: in the assay with COX II enzyme, the “inhibition of the COX II enzyme” value was “selectively inhibit the COX II enzyme”.

For `CS(=O)(=O)c1ccc(C2=C(c3ccc(F)cc3)CCC2)cc1` [Example 1, 1-[2-(4-Fluorophenyl)cyclopenten-1-yl]-4-(methylsulfonyl)benzene], in assay [1] (setting [2]), the inhibition in vivo at 20 mg/kg was found to be 66%. The inhibition in vivo at 10 mg/kg in the assay with RAT PAW EDEMA was 32%.

As for `Cc1cc(F)ccc1C1=C(c2ccc(S(C)(=O)=O)cc2)CCC1` [Example 2, 1-[2-(4-Fluoro-2-methylphenyl)cyclopenten-1-yl]-4-(methylsulfonyl)benzene], the inhibition in vivo at 10 mg/kg with RAT PAW EDEMA turned out to be 39%.

As for `CS(=O)(=O)c1ccc(C2=C(c3ccc(Cl)cc3)CCC2)cc1` [Example 3, 1-[2-(4-Chlorophenyl)cyclopenten-1-yl]-4-(methylsulfonyl)benzene], in assay [1] (setting [2]), the inhibition in vivo at 20 mg/kg was 41%. Further, in the assay with RAT PAW EDEMA, the inhibition in vivo at 10 mg/kg is 33%.

Regarding `CS(=O)(=O)c1ccc(C2=C(c3ccc(Cl)cc3Cl)CCC2)cc1` [Example 4, 1-[2-(2,4-Dichlorophenyl)cyclopenten-1-yl]-4-(methylsulfonyl)benzene], the inhibition in vivo at 10 mg/kg in the assay on RAT PAW EDEMA was 25%.

With `Cc1ccc(C2=C(c3ccc(S(C)(=O)=O)cc3)CCC2)cc1` [Example 5, 1-[2-(4-Methylphenyl)cyclopenten-1-yl]-4-(methylsulfonyl)benzene], the inhibition in vivo at 10 mg/kg in the assay with RAT PAW EDEMA worked out at 16%.

`CS(=O)(=O)c1ccc(C2=C(c3ccc(C(F)(F)F)cc3)CCC2)cc1` [Example 6, 1-[2-(4-Trifluoromethylphenyl)cyclopenten-1-yl]-4-(methylsulfonyl)benzene]: the inhibition in vivo at 20 mg/kg in assay [1] (setting [2]) was found to be 29%. Further, in the assay with RAT PAW EDEMA, the inhibition in vivo at 10 mg/kg was determined as 39%.

Turning to `CSc1ccc(C2=C(c3ccc(S(C)(=O)=O)cc3)CCC2)cc1` [Example 11, 1-[2-(4-Methylthiophenyl)cyclopenten-1-yl]-4-(methylsulfonyl)benzene], in assay [1] (setting [2]), the inhibition in vivo at 20 mg/kg worked out at 39%.

Regarding `CC1(C)CC(c2ccc(F)cc2)=C(c2ccc(S(C)(=O)=O)cc2)C1` [Example 12, 1-[2-(4-Fluorophenyl)-4,4-dimethylcyclopenten-1-yl]-4-(methylsulfonyl)benzene], the pIC50 at HUMAN COX I (recombinant cox-i) was 4.74. In the assay with RAT PAW EDEMA, the inhibition in vivo at 20 mg/kg worked out at 45%.

As to `CC1(C)CC(c2ccc(F)cc2)=C(c2ccc(S(N)(=O)=O)cc2)C1` [Example 13, 4-[2-(4-Fluorophenyl)-4,4-dimethylcyclopenten-1-yl]benzenesulfonamide], the inhibition in vivo at 30 mg/kg in assay [1] (read-out: ANALGESIA % Inhibition, Assay performed at 30 mg/kg body weight (footnote 2), oral, 3 hours after carrageenan, read-out: […] % Inhibition) is 14%; in the assay with RAT PAW EDEMA, 34%. Further, the pIC50 at HUMAN COX I (setting [3]) is 6.30.

On to `CC1(C)CC(c2ccc(Cl)cc2)=C(c2ccc(S(C)(=O)=O)cc2)C1` [Example 14, 1-[2-(4-Chlorophenyl)-4,4-dimethylcyclopenten-1-yl]-4-(methylsulfonyl)benzene], for which the pIC50 on HUMAN COX I (recombinant cox-i) was 5.80. The inhibition in vivo at 30 mg/kg in the assay with RAT PAW EDEMA worked out at 31%.

As for `CC1(C)CC(c2ccc(Cl)cc2)=C(c2ccc(S(N)(=O)=O)cc2)C1` [Example 15, 4-[2-(4-Chlorophenyl)-4,4-dimethylcyclopenten-1-yl]benzenesulfonamide], the pIC50 at HUMAN COX II was more than 7.00. Moreover, the inhibition in vivo at 30 mg/kg in the assay with RAT PAW EDEMA is 41%.

For `CCC1(CC)CC(c2ccc(F)cc2)=C(c2ccc(S(N)(=O)=O)cc2)C1` [Example 19, 4-[2-(4-Fluorophenyl)-4,4-diethylcyclopenten-1-yl]benzenesulfonamide], the pIC50 was 5.00 at HUMAN COX I (setting [3]) and 5.41 at HUMAN COX II.

`NS(=O)(=O)c1ccc(C2=C(c3ccc(F)cc3)CCC2)cc1` [Example 20, 4-[2-(4-Fluorophenyl)cyclopenten-1-yl]benzenesulfonamide]: the inhibition in vivo at 30 mg/kg in assay [1] (setting [2]) was 44%. Moreover, the pIC50 at HUMAN COX I (recombinant cox-i) was 5.38. For the same compound, the inhibition in vivo at 10 mg/kg with RAT PAW EDEMA stood at 26%.

As to `NS(=O)(=O)c1ccc(C2=C(c3ccc(Cl)cc3)CCC2)cc1` [Example 21, 4-[2-(4-Chlorophenyl)cyclopenten-1-yl]benzenesulfonamide], the pIC50 at HUMAN COX I (recombinant cox-i) is 5.89.

For `COc1ccc(C2=C(c3ccc(S(C)(=O)=O)cc3)CCC2)cc1` [Example 23, 1-[2-(4-Methoxyphenyl)cyclopenten-1-yl]-4-(methylsulfonyl)benzene], the inhibition in vivo at 30 mg/kg in assay [1] (setting [2]) was 15%. The pIC50 on HUMAN COX I (recombinant cox-i) was 5.00. Moreover, the inhibition in vivo at 10 mg/kg in the assay on RAT PAW EDEMA is 22%.

Turning to `CS(=O)(=O)c1ccc(C2=C(c3cccc(F)c3F)CCC2)cc1` [Example 25, 1-[2-(2,3-Difluorophenyl)cyclopenten-1-yl]-4-(methylsulfonyl)benzene], the pIC50 at HUMAN COX I (setting [3]) was less than 4.00; on HUMAN COX II it was more than 7.00.

With `NS(=O)(=O)c1ccc(C2=C(c3cccc(F)c3F)CCC2)cc1` [Example 26, 4-[2-(2,3-Difluorophenyl)cyclopenten-1-yl]benzenesulfonamide], the pIC50 at HUMAN COX I (setting [3]) is 5.44.

In the case of `NS(=O)(=O)c1ccc(C2=C(c3ccc(Cl)c(Cl)c3)CCC2)cc1` [Example 28, 4-[2-(3,4-Dichlorophenyl)cyclopenten-1-yl]benzenesulfonamide], the inhibition in vivo at 30 mg/kg in assay [1] (setting [2]) is 26%. Further, the inhibition in vivo at 10 mg/kg with RAT PAW EDEMA is 10%.

Turning to `COc1ccc(C2=C(c3ccc(S(N)(=O)=O)cc3)CCC2)cc1F` [Example 30, 4-[2-(3-Fluoro-4-methoxyphenyl)cyclopenten-1-yl]benzenesulfonamide], the pIC50 on HUMAN COX I (recombinant cox-i) is 5.09. Moreover, the inhibition in vivo at 30 mg/kg with RAT PAW EDEMA was determined as 47%.

Take `COc1ccc(C2=C(c3ccc(S(N)(=O)=O)cc3)CCC2)cc1Cl` [Example 32, 4-[2-(3-Chloro-4-methoxyphenyl)cyclopenten-1-yl]benzenesulfonamide]: in assay [1] (setting [2]), the inhibition in vivo at 30 mg/kg worked out at 17%. For the same compound, in the assay with RAT PAW EDEMA, the inhibition in vivo at 10 mg/kg worked out at 13%.

For the compound `NS(=O)(=O)c1ccc(C2=C(c3ccc(F)c(Cl)c3)CCC2)cc1` [Example 34, 4-[2-(3-Chloro-4-fluorophenyl)cyclopenten-1-yl]benzenesulfonamide], the inhibition in vivo at 30 mg/kg in assay [1] (setting [2]) amounted to 46%. The pIC50 at HUMAN COX I (setting [3]) is 5.68. Besides, the inhibition in vivo at 10 mg/kg with RAT PAW EDEMA was 37%.

`CS(=O)(=O)c1ccc(C2=C(c3ccc4c(c3)OCO4)CCC2)cc1` [Example 35, 5-[2-[4-(Methylsulfonyl)phenyl]cyclopenten-1-yl]-1,3-benzodioxole]: in the assay with RAT PAW EDEMA, the inhibition in vivo at 30 mg/kg worked out at 6%.

Consider `Cc1ccc(C2=C(c3ccc(S(C)(=O)=O)cc3)CCC2)cn1` [Example 36], for which the pIC50 at HUMAN COX I (setting [3]) was less than 4.00. Besides, the inhibition in vivo at 30 mg/kg in the assay on RAT PAW EDEMA was 33%.

On to `O=S(=O)(CF)c1ccc(C2=C(c3ccc(F)cc3)CCC2)cc1` [Example 37, 1-[2-(4-Fluorophenyl)cyclopenten-1-yl]-4-(fluoromethylsulfonyl)benzene], for which the pIC50 is less than 4.00 on HUMAN COX I (setting [3]) and more than 7.00 at HUMAN COX II.

In the case of `CS(=O)(=O)Nc1ccc([N+](=O)[O-])cc1OC1CCCCC1` [N-(2-cyclohexyloxy-4-nitrophenyl)methanesulfonamide], in the assay on COX II enzyme, the “inhibition of the COX II enzyme” value is listed as “inhibits the COX II enzyme”.
